Experimental data: the supplement of paper PMC8671470

Experiments:
Assay in all cases: cell viability (% survival relative to DMSO control); higher = less cytotoxic
Settings in all cases: 72 h
[1] = test system: MV4-11
Description: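 8x8 drug-combination matrices (0–5000 nM; rosiglitazone and lestaurtinib 0–1000 nM) were run in MV4-11 cells for 72 h with CellTiter-Glo read-out. Survival is normalised to DMSO and 10 µM bortezomib and clipped at 100%.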

[2] = test system: BV-173
Description: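 8x8 drug-combination matrices (0–5000 nM; rosiglitazone and lestaurtinib 0–1000 nM) were run in BV-173 cells for 72 h with CellTiter-Glo read-out. Survival is normalised to DMSO and 10 µM bortezomib and clipped at 100%.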

[3] = test system: HL-60
Description: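 8x8 drug-combination matrices (0-5000 nM; rosiglitazone and lestaurtinib 0-1000 nM) were run in HL-60 cells for 72 h with a CellTiter-Glo read-out. Survival is normalised to DMSO and 10 µM bortezomib and clipped at 100%. Bliss synergy was analysed in SynergyFinder.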

[4] = drug1 concentration 5 nM, drug2 concentration 5 nM
[5] = drug1 concentration 5 nM, drug2 concentration 10 nM
[6] = drug1 concentration 5 nM, drug2 concentration 50 nM
[7] = drug1 concentration 5 nM, drug2 concentration 100 nM
[8] = drug1 concentration 5 nM, drug2 concentration 500 nM
[9] = drug1 concentration 5 nM, drug2 concentration 1000 nM
[10] = drug1 concentration 5 nM, drug2 concentration 5000 nM
[11] = drug1 concentration 10 nM, drug2 concentration 5 nM
[12] = drug1 concentration 10 nM, drug2 concentration 10 nM
[13] = drug1 concentration 10 nM, drug2 concentration 50 nM
[14] = drug1 concentration 10 nM, drug2 concentration 100 nM
[15] = drug1 concentration 10 nM, drug2 concentration 500 nM
[16] = drug1 concentration 10 nM, drug2 concentration 1000 nM
[17] = drug1 concentration 10 nM, drug2 concentration 5000 nM
[18] = drug1 concentration 50 nM, drug2 concentration 5 nM
[19] = drug1 concentration 50 nM, drug2 concentration 10 nM
[20] = drug1 concentration 50 nM, drug2 concentration 50 nM
[21] = drug1 concentration 50 nM, drug2 concentration 100 nM
[22] = drug1 concentration 50 nM, drug2 concentration 500 nM
[23] = drug1 concentration 50 nM, drug2 concentration 1000 nM
[24] = drug1 concentration 50 nM, drug2 concentration 5000 nM
[25] = drug1 concentration 100 nM, drug2 concentration 5 nM
[26] = drug1 concentration 100 nM, drug2 concentration 10 nM
[27] = drug1 concentration 100 nM, drug2 concentration 50 nM
[28] = drug1 concentration 100 nM, drug2 concentration 100 nM
[29] = drug1 concentration 100 nM, drug2 concentration 500 nM
[30] = drug1 concentration 100 nM, drug2 concentration 1000 nM
[31] = drug1 concentration 100 nM, drug2 concentration 5000 nM
[32] = drug1 concentration 500 nM, drug2 concentration 5 nM
[33] = drug1 concentration 500 nM, drug2 concentration 10 nM
[34] = drug1 concentration 500 nM, drug2 concentration 50 nM
[35] = drug1 concentration 500 nM, drug2 concentration 100 nM
[36] = drug1 concentration 500 nM, drug2 concentration 500 nM
[37] = drug1 concentration 500 nM, drug2 concentration 1000 nM
[38] = drug1 concentration 500 nM, drug2 concentration 5000 nM
[39] = drug1 concentration 1000 nM, drug2 concentration 5 nM
[40] = drug1 concentration 1000 nM, drug2 concentration 10 nM
[41] = drug1 concentration 1000 nM, drug2 concentration 50 nM
[42] = drug1 concentration 1000 nM, drug2 concentration 100 nM
[43] = drug1 concentration 1000 nM, drug2 concentration 500 nM
[44] = drug1 concentration 1000 nM, drug2 concentration 1000 nM
[45] = drug1 concentration 1000 nM, drug2 concentration 5000 nM
[46] = drug1 concentration 5000 nM, drug2 concentration 5 nM
[47] = drug1 concentration 5000 nM, drug2 concentration 10 nM
[48] = drug1 concentration 5000 nM, drug2 concentration 50 nM
[49] = drug1 concentration 5000 nM, drug2 concentration 100 nM
[50] = drug1 concentration 5000 nM, drug2 concentration 500 nM
[51] = drug1 concentration 5000 nM, drug2 concentration 1000 nM
[52] = drug1 concentration 5000 nM, drug2 concentration 5000 nM

O=C(C1CC1)N1CC[C@@H](C=C2NNC(=O)N2c2ccc(-c3ccc4occc4c3)cc2)C1 + CS(=O)(=O)N1CCN(Cc2cc3nc(-c4cccc5[nH]ncc45)nc(N4CCOCC4)c3s2)CC1 [Pictilisib]
cell viability [1, 4]: > 100% | cell viability [1, 5]: > 100% | cell viability [1, 6]: > 100% | cell viability [1, 7]: 89.5% | cell viability [1, 8]: > 100% | cell viability [1, 9]: 91.9% | cell viability [1, 10]: 76.5% | cell viability [1, 11]: 91.3% | cell viability [1, 12]: 89.1% | cell viability [1, 13]: 99.9% | cell viability [1, 14]: 96.8% | cell viability [1, 15]: 95.5% | cell viability [1, 16]: 71.7% | cell viability [1, 17]: 49.4% | cell viability [1, 18]: > 100% | cell viability [1, 19]: > 100% | cell viability [1, 20]: 94.2% | cell viability [1, 21]: 99.6% | cell viability [1, 22]: > 100% | cell viability [1, 23]: 87.8% | cell viability [1, 24]: 58.1% | cell viability [1, 25]: 89.5% | cell viability [1, 26]: 91.9% | cell viability [1, 27]: 92% | cell viability [1, 28]: > 100% | cell viability [1, 29]: 94% | cell viability [1, 30]: 80.5% | cell viability [1, 31]: 68.8% | cell viability [1, 32]: > 100% | cell viability [1, 33]: 72% | cell viability [1, 34]: 93.5% | cell viability [1, 35]: > 100% | cell viability [1, 36]: 94.4% | cell viability [1, 37]: 87.1% | cell viability [1, 38]: 69.9% | cell viability [1, 39]: 76.8% | cell viability [1, 40]: 94.3% | cell viability [1, 41]: > 100% | cell viability [1, 42]: 94.6% | cell viability [1, 43]: 94.2% | cell viability [1, 44]: > 100% | cell viability [1, 45]: 44.4% | cell viability [1, 46]: > 100% | cell viability [1, 47]: > 100% | cell viability [1, 48]: 56.5% | cell viability [1, 49]: > 100% | cell viability [1, 50]: 80.3% | cell viability [1, 51]: 74.8% | cell viability [1, 52]: 55.6% | cell viability [2, 4]: > 100% | cell viability [2, 5]: > 100% | cell viability [2, 6]: > 100% | cell viability [2, 7]: 81% | cell viability [2, 8]: > 100% | cell viability [2, 9]: 89.7% | cell viability [2, 10]: 87.6% | cell viability [2, 11]: > 100% | cell viability [2, 12]: > 100% | cell viability [2, 13]: > 100% | cell viability [2, 14]: > 100% | cell viability [2, 15]: > 100% | cell viability [2, 16]: 99.2% | cell viability [2, 17]: 92.1% | cell viability [2, 18]: 95% | cell viability [2, 19]: > 100% | cell viability [2, 20]: > 100% | cell viability [2, 21]: > 100% | cell viability [2, 22]: 93.8% | cell viability [2, 23]: > 100% | cell viability [2, 24]: 84.8% | cell viability [2, 25]: > 100% | cell viability [2, 26]: > 100% | cell viability [2, 27]: > 100% | cell viability [2, 28]: 94.8% | cell viability [2, 29]: > 100% | cell viability [2, 30]: 92.8% | cell viability [2, 31]: > 100% | cell viability [2, 32]: 84.4% | cell viability [2, 33]: 95.5% | cell viability [2, 34]: 94.4% | cell viability [2, 35]: 94.3% | cell viability [2, 36]: > 100% | cell viability [2, 37]: 80% | cell viability [2, 38]: 75.7% | cell viability [2, 39]: 77.5% | cell viability [2, 40]: > 100% | cell viability [2, 41]: 99.1% | cell viability [2, 42]: 87.4% | cell viability [2, 43]: 98.7% | cell viability [2, 44]: 99.9% | cell viability [2, 45]: 70.6% | cell viability [2, 46]: 84.8% | cell viability [2, 47]: 92.2% | cell viability [2, 48]: 59.7% | cell viability [2, 49]: > 100% | cell viability [2, 50]: 89.3% | cell viability [2, 51]: 78.4% | cell viability [2, 52]: > 100% | cell viability [3, 4]: 93% | cell viability [3, 5]: 70% | cell viability [3, 6]: 59.4% | cell viability [3, 7]: 60.3% | cell viability [3, 8]: 46.9% | cell viability [3, 9]: 46.7% | cell viability [3, 10]: 38.6% | cell viability [3, 11]: 71.7% | cell viability [3, 12]: 68.5% | cell viability [3, 13]: 61.7% | cell viability [3, 14]: 58.5% | cell viability [3, 15]: 49% | cell viability [3, 16]: 50.8% | cell viability [3, 17]: 42.6% | cell viability [3, 18]: 66.5% | cell viability [3, 19]: 58.9% | cell viability [3, 20]: 54.4% | cell viability [3, 21]: 51.3% | cell viability [3, 22]: 44.4% | cell viability [3, 23]: 41.3% | cell viability [3, 24]: 40.3% | cell viability [3, 25]: 59.9% | cell viability [3, 26]: 60.9% | cell viability [3, 27]: 53.3% | cell viability [3, 28]: 51.5% | cell viability [3, 29]: 45.7% | cell viability [3, 30]: 44.2% | cell viability [3, 31]: 33.2% | cell viability [3, 32]: 51.3% | cell viability [3, 33]: 56.7% | cell viability [3, 34]: 52.8% | cell viability [3, 35]: 45.6% | cell viability [3, 36]: 34.5% | cell viability [3, 37]: 48.4% | cell viability [3, 38]: 38.6% | cell viability [3, 39]: 56.3% | cell viability [3, 40]: 55.8% | cell viability [3, 41]: 53.1% | cell viability [3, 42]: 51.7% | cell viability [3, 43]: 47.1% | cell viability [3, 44]: 49.9% | cell viability [3, 45]: 43.5% | cell viability [3, 46]: 51.5% | cell viability [3, 47]: 52.9% | cell viability [3, 48]: 51% | cell viability [3, 49]: 52.2% | cell viability [3, 50]: 45% | cell viability [3, 51]: 39.1% | cell viability [3, 52]: 36.2%
